The results in this text go back to PMC7614687, “Modulation of the substrate specificity of the kinase PDK1 by distinct conformations of the full-length protein*” (Science signaling, 2023).

The target of one assay is T1, PDK1 (Homo sapiens, UniProt O15530).
T1 sequence (O15530 1-556): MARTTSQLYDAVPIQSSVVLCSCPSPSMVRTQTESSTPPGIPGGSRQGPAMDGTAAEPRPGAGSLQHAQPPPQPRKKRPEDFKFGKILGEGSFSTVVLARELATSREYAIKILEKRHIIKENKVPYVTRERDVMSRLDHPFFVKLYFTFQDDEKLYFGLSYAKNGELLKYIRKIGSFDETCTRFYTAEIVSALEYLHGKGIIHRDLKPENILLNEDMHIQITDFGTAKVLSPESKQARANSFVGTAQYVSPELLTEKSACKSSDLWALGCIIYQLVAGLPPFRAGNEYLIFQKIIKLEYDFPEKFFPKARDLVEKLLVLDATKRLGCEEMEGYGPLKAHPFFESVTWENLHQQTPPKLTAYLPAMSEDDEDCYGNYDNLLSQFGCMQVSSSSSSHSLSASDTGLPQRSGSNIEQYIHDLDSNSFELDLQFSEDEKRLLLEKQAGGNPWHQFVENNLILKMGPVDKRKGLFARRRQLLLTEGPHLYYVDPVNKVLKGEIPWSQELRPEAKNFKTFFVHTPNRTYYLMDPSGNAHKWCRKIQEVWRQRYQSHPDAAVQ
Briefly: Thermo Fisher Scientific/Invitrogen PDK1 cascade assay (Akt2 as substrate, no PIP3). Format: biochemical. As to conditions: 10-point titration. The method, then:
To explore the structural basis of this effect, we synthesized additional inositol phosphate derivatives related to IP5 (Fig. 2A). […] The first was Thermo Fisher Scientific/Invitrogen PDK1 cascade assay, which uses Akt as substrate in a coupled, cascade-type assay and in which the activity of PDK1 is measured by its ability to activate Akt. The second was the “PDK1 Direct” assay, which uses a peptide substrate (Ser/Thr 07) of undisclosed sequence (table S1) as the substrate of PDK1 and a readout of FRET between coumarin and fluorescein (5-FAM). […] Scyllo-IP5 and another synthetic derivative of IP5, 2-O-(2-aminoethyl)-IP5 (AMR1474), were weak inhibitors in the same assays (10% or less inhibition at 1 μM) (table S2).
The commercial PDK1 activity assays were provided by Thermo Fisher Scientific as a service. […] The ¨PDK1 Direct¨ biochemical assay measures the phosphorylation of a peptide termed Ser/Thr 07 that is labeled with a donor fluorophore (coumarin) and an acceptor fluorophore (fluorescein) to create a FRET pair. The peptide substrate was first incubated with the kinase and ATP-Mg (25 μM ATP), then non-phosphorylated peptide was cleaved with a protease. The remaining FRET corresponds to the phosphorylated substrate. […]

A further assay concerns the target T2, PDK1_1-556 (Homo sapiens, UniProt O15530).
T2 construct: effect of HYG8 on the thermal stability (ΔTm) of PDK1_1-556 (H) and PDK1_50-359 (I); His (N); made in house; host or cells: Sf9 insect cells (baculovirus)
T2 sequence (O15530 1-556): T1 sequence (O15530 1-556)
Briefly: PDK1-mediated activation/phosphorylation of Akt and SGK in vitro (cascade format, Western blot). The format is biochemical. As to conditions: absence of PIP3, HYG8 1 μM. The method, then: PDK1 activity was also assessed in a cascade format that measures the ability of PDK1 to activate its substrates GST-ΔN-SGK [S422D], GST-Akt [S473D] and GST-Akt ΔPH [S473D], as previously performed ([24], [28]). SGK and Akt proteins mutated at the HM phosphorylation site to Asp can be activated by phosphorylation at the activation loop by PDK1. In brief, we preincubated SGK or Akt (0.5 μg) with 10 ng or 100 ng of PDK1 at room temperature (22°C) in a buffer containing 50 mM Tris pH 7.5, 0.05 mg/ml BSA, 0.1% β-mercaptoethanol, 10 mM MgCl2, 100 μM ATP (20 μl). We measured the activity of SGK or Akt by adding 30 μl buffer containing the polypeptide substrate KK-Crosstide ([…]; 100 μM) and [γ^32P]ATP (100 μM). […]
PDK1 activity was also measured by incubating PDK1 with protein kinase substrates and measuring their phosphorylation by Western blot using phospho-specific antibodies to the activation loop phosphorylation site, essentially as previously performed ([24]), with the modification that the secondary antibodies were fluorescent for improved quantification. […] The basal phosphorylation of substrates was determined in the absence of PDK1, while “maximal” phosphorylation corresponds to the phosphorylation of substrates with excess PDK1 (10 nM PDK1 for Akt/PKB substrates and 1 nM PDK1 for SGK). […] Fluorescent signals were measured using Odyssey Fc (Licor). […]

In the case of `O=C(O[C@H]1[C@@H](OP(=O)(O)O)[C@H](OP(=O)(O)O)[C@@H](OP(=O)(O)O)[C@H](OP(=O)(O)O)[C@H]1OP(=O)(O)O)c1ccccc1` [HYG8, 2-O-benzoyl-IP5], the “Hill slope, Cascade” value at PDK1 was determined as 2.19. Also, the IC50 against PDK1 (absence of PIP3) turned out to be 6.42 nM. On PDK1_1-556, the “activation of Akt and Akt ΔPH by PDK1” value is “selectively inhibited”; the “activation of SGK by PDK1” value is reported as “did not inhibit”.
